This is an account of results in ChEMBL document CHEMBL3817799, “N-Nitrosulfonamides: A new chemotype for carbonic anhydrase inhibition” (Bioorg Med Chem, 2016).

SMILES strings stand for the structures.

One assay addresses Carbonic anhydrase 9 (Homo sapiens, UniProt Q16790). Briefly: Inhibition of human recombinant carbonic anhydrase 9 preincubated for 15 mins prior to testing by stopped flow CO2 hydrase assay.
Assay [1] can be described thus: Inhibition of Malassezia globosa beta carbonic anhydrase preincubated for 15 mins prior to testing by stopped flow CO2 hydrase assay.
In another assay the target is Carbonic anhydrase 2 (Homo sapiens, UniProt P00918). As to the kind of experiment: Inhibition of human recombinant carbonic anhydrase 2 preincubated for 15 mins prior to testing by stopped flow CO2 hydrase assay.
A further assay deals with Malassezia globosa. As to the kind of experiment: Potency index, ratio of acetazolamide Ki to compound Ki for Malassezia globosa beta carbonic anhydrase.

For the compound `NCc1ccc(S(=O)(=O)N[N+](=O)[O-])cc1`, the Ki at Carbonic anhydrase 9 was 5.99 µM; in assay [1], 8.09 µM.

Take `CN(C)c1ccc(S(=O)(=O)N[N+](=O)[O-])cc1`: the values for the Ki (at Carbonic anhydrase 2; in assay [1]) were > 50 µM and 0.22 µM, respectively. In addition, the Ratio Ki in the assay with Malassezia globosa is 10.

Take `Nc1nnc(S(=O)(=O)N[N+](=O)[O-])s1`: the Ki is 4.52 µM on Carbonic anhydrase 2, 0.84 µM at Carbonic anhydrase 9 and 4.5 µM in assay [1]. Moreover, the Ratio Ki in the assay on Malassezia globosa was determined as 10.

In the case of `N#CCNc1ccc(S(=O)(=O)N[N+](=O)[O-])cc1`, the Ki came out at 1.35 µM on Carbonic anhydrase 2, 2 µM at Carbonic anhydrase 9 and 3.49 µM in assay [1]. The Ratio Ki with Malassezia globosa stood at 10.

Regarding `Nc1cccc(S(=O)(=O)N[N+](=O)[O-])c1`, the Ki was 5.11 µM on Carbonic anhydrase 2, > 50 µM at Carbonic anhydrase 9 and 2.75 µM in assay [1]. Moreover, the Ratio Ki with Malassezia globosa was determined as 10.

For `CC(=O)Nc1nnc(S(N)(=O)=O)s1` [ACETAZOLAMIDE], the Ki in assay [1] was 74 µM.

By Ki is commonly meant a dissociation constant, usually derived from enzyme kinetics or from competition with a known ligand.
